Measurements from patent publication US20240208992A1, “MACROCYCLES AS CFTR MODULATORS” (Idorsia Pharmaceuticals Ltd, priority 2021, published 2024).

Target: human F508del-CFTR (Homo sapiens, UniProt P13569, DEL508-508)
Test: F508del-CFTR cell surface expression (corrector activity), DiscoveRx ß-galactosidase complementation chemiluminescence assay in recombinant U2OS cell line;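 also: U2OS cells co-expressing ProLink-tagged F508del-CFTR and a membrane-anchored enzyme acceptor, where more surface CFTR restores β-galactosidase activity measured by chemiluminescence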
Settings: for EC50: EC50, F508del-CFTR cell surface expression; for Emax: U2OS
[1] = U2OS cells, 16h compound incubation, geomean values
[2] = in relation to Emax of corrector lumacaftor (=100%), arithmetic mean values
[3] = U2OS cells, 16h compound incubation, geomean of several measurements
[4] = in relation to the Emax of the corrector lumacaftor (=100%), U2OS cells, 16h compound incubation, arithmetic mean
[5] = U2OS cell line, 16h compound incubation, geomean values
[6] = in relation to the Emax of the corrector lumacaftor (=100%), U2OS cell line, 16h compound incubation, arithmetic mean values

Sequence of human F508del-CFTR (P13569 with tags, fused parts or gaps DEL508-508): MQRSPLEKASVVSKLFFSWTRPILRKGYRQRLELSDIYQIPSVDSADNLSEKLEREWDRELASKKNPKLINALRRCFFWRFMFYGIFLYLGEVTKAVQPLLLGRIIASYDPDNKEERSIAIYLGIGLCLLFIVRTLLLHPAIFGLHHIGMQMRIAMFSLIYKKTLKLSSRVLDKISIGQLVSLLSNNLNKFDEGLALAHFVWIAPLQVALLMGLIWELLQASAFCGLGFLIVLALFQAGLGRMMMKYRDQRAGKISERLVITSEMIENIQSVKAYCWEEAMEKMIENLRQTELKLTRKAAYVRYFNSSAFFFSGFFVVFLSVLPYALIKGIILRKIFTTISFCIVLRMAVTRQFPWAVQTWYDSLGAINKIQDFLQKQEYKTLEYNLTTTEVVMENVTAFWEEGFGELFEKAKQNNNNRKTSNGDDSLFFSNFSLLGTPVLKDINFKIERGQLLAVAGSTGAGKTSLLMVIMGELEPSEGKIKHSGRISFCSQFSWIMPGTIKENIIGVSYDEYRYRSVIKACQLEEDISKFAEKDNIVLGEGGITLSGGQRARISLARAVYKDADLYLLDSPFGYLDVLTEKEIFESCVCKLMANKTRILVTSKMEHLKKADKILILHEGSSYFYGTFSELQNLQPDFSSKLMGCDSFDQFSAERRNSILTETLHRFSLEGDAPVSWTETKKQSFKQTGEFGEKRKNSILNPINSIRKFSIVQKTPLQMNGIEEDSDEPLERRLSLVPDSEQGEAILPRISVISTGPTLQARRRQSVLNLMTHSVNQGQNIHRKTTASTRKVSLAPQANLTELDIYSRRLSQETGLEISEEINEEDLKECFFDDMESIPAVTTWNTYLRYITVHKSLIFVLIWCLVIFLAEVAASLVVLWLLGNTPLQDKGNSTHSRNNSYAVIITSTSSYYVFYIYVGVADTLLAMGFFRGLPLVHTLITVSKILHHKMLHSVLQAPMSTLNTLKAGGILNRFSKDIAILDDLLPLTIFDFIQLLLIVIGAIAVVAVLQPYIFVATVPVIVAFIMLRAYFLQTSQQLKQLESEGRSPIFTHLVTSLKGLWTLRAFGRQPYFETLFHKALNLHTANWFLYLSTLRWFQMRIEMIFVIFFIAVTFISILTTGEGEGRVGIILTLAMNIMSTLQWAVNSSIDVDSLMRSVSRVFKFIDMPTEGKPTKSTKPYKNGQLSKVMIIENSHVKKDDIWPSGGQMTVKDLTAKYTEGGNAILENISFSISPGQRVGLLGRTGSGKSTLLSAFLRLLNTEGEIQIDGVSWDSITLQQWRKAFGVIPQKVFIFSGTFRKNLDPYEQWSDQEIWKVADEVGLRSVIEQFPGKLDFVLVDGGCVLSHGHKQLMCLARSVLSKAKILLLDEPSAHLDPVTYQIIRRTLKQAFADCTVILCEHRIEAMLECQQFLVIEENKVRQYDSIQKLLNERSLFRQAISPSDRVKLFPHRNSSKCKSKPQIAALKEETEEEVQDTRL

EC50 [3] | Emax [4] | SMILES | EC50 [1] | Emax [2] | EC50 [5] | Emax [6]
 |  | COc1cccc(CCNC(=O)[C@@H]2CC(=O)N(C)[C@@H](CC(C)C)C(=O)N(C)C3(CC3)C(=O)N[C@H](Cc3ccccc3)COc3cnc4c(F)cccc4c3C(=O)N2)c1 [Example 439, (3′S,7′S,13′R)-13′-benzyl-18′-fluoro-7′-isobutyl-N-(3-methoxyphenethyl)-6′,9′-dimethyl-1′,5′,8′,11′-tetraoxo-2′,3′,4′,5′,6′,7′,8′,9′,11′,12′,13′,14′-dodecahydro-1′H-spiro[cyclopropane-1,10′-[1]oxa[4,7,10,14]tetraazacycloheptadecino[17,16-c]quinoline]-3′-carboxamide] | 253 nM | 345% |  | 
54 nM | 379% | COc1cc(CCNC(=O)[C@@H]2CC(=O)N(C)[C@@H](CC(C)C)C(=O)N(C)[C@H](CN3CCC(F)(F)C3)C(=O)N[C@H](Cc3ccccc3)COc3cnc4ccc(F)cc4c3C(=O)N2)on1 [Example 827, (3S,7S,10R,13R)-13-benzyl-10-((3,3-difluoropyrrolidin-1-yl)methyl)-20-fluoro-7-isobutyl-N-(2-(3-methoxyisoxazol-5-yl)ethyl)-6,9-dimethyl-1,5,8,11-tetraoxo-1,2,3,4,5,6,7,8,9,10,11,12,13,14-tetradecahydro-[1]oxa[4,7,10,14]tetraazacycloheptadecino[17,16-c]quinoline-3-carboxamide] |  |  |  | 
 |  | COc1cccc(CCNC(=O)[C@@H]2CC(=O)N(C)[C@@H](CC(C)C)C(=O)N(C)CC(=O)N[C@H](Cc3ccccc3)COc3cc(OC)ccc3C(=O)N2)c1 [Example 232, (3R,9S,13S)-3-benzyl-9-isobutyl-18-methoxy-N-(3-methoxyphenethyl)-7,10-dimethyl-5,8,11,15-tetraoxo-2,3,4,5,6,7,8,9,10,11,12,13,14,15-tetradecahydrobenzo[p][1]oxa[4,7,10,14]tetraazacycloheptadecine-13-carboxamide] |  |  | 526 nM | 105%
270 nM | 506% | COc1noc(CCNC(=O)[C@@H]2CC(=O)N(C)[C@@H](CC(C)C)C(=O)N(C)[C@H](Cc3nc(C(F)(F)F)no3)C(=O)N[C@H](Cc3ccccc3)COc3ccc4c(cc(F)c[n+]4[O-])c3C(=O)N2)n1 [Example 983, (3S,7S,10R,13R)-13-benzyl-20-fluoro-7-isobutyl-3-((2-(3-methoxy-1,2,4-oxadiazol-5-yl)ethyl)carbamoyl)-6,9-dimethyl-1,5,8,11-tetraoxo-10-((3-(trifluoromethyl)-1,2,4-oxadiazol-5-yl)methyl)-1,2,3,4,5,6,7,8,9,10,11,12,13,14-tetradecahydro-[1]oxa[4,7,10,14]tetraazacycloheptadecino[16,17-f]quinoline 18-oxide] |  |  |  | 
 |  | CC(C)C[C@H]1C(=O)N2CCCC[C@@H]2C(=O)N[C@H](Cc2ccccc2)COc2cnc3ccc(F)cc3c2C(=O)N[C@H](C(=O)NCCc2c(F)cccc2F)CC(=O)N1C [Example 636, (9S,13S,19aR,22R)-22-benzyl-N-(2,6-difluorophenethyl)-5-fluoro-13-isobutyl-12-methyl-7,11,14,20-tetraoxo-7,8,9,10,11,12,13,14,17,18,19,19a,20,21,22,23-hexadecahydro-16H-pyrido[2′,1′:6,7][1]oxa[4,7,10,14]tetraazacycloheptadecino[17,16-c]quinoline-9-carboxamide] | 91 nM | 276% |  | 
 |  | COc1cc2c(cc1OC)C(=O)N[C@H](C(=O)NCCc1ccc(C)cc1)CC(=O)N(C)[C@@H](CC(C)C)C(=O)N(C)CC(=O)N[C@H](Cc1ccccc1)CO2 [Example 192, (3R,9S,13S)-3-benzyl-9-isobutyl-17,18-dimethoxy-7,10-dimethyl-N-(4-methylphenethyl)-5,8,11,15-tetraoxo-2,3,4,5,6,7,8,9,10,11,12,13,14,15-tetradecahydrobenzo[p][1]oxa[4,7,10,14]tetraazacycloheptadecine-13-carboxamide] |  |  | 316 nM | 107%
